Measurements: US10273228B2, “Hepatitis B viral assembly effectors” (Indiana University Research and Technology Corporation, priority 2015, dated 2019)
Where two headings read alike, the source gives them in different places.

What was measured:
[1] = test system: HBV viral load, AD38 cells; assay: Activity of test compounds on viral production from AD38 cells (viral load by quantitative PCR of the core sequence in supernatant); type: cell-based, Hepatitis B virus; conditions: 10 μM compound, 6 days at 37° C., vs DMSO control wells; for activity at 10 µM: Hepatitis B virus, 144 h, read-out: AD38 Viral Load (CpAM/DMSO %) at 10 μM
Experimental: (§1) AD38 cells were then re-suspended with 10 mL of treatment medium and counted. Wells of a collagen coated 96-well NUNC microtiter plate were seeded at 50,000/well in 180 μL of treatment medium, and 20 μL of either 10% DMSO (Control) or a 10× solution of test compound in 10% DMSO in treatment media was added for a final compound concentration 1, 3, or 10 μM (1.0% final [DMSO]) and plates were incubated for 6 days at 37° C.
Subsequently viral load production was assayed by quantitative PCR of the core sequence. Briefly, 5 μL of clarified supernatant was added to a PCR reaction mixture that contained forward primers HBV-f 5′-CTGTGCCTTGGGTGGCTTT-3′, Reverse primers HBV-r 5′-[…]-3′ and Fluorescent TaqMan™ Probes HBV-probe 5′-FAM/AGCTCCAAA/ZEN/[…]/3IABkFQ-3′ in Quanta Biosciences PerfeCTa® qPCR Toughmix®, and was subsequently on an Applied Biosystems VIIA7 in a final volume of 20 μL. The PCR mixture was incubated at 45° C. for 5 minutes, then 95° C. for 10 min, followed by 40 cycles of 10 seconds at 95° C. and 20 seconds at 60° C. Viral load was quantitated against known standards by using ViiA™ 7 Software. Viral load in the supernatant from wells with treated cells were compared against viral load in supernatant from DMSO control wells (≥3 per plate).

[2] = test system: AD38 cells; assay: AD38 viability normalized to DMSO control; type: cell-based; conditions: 10 μM compound, vs DMSO control
Experimental: as §1

Row | SMILES | activity at 10 µM ([1]; Table 9) [%] | AD38 Viability Normalized Result (CPAM/DMSO %) at 10 μM ([2]; Table 9) [%] | activity at 10 µM ([1]; Table 6) [%] | AD38 Viability Normalized Result (CPAM/DMSO %) at 10 μM ([2]; Table 6) [%] | AD38 Viral Load (CpAM/DMSO %) at 10 μM ([1]; Table 9) [%]
1 | CCOc1ccc(S(=O)(=O)N2CCN(c3nc(C)cc(Nc4ccc(F)cc4)n3)CC2)cc1 [Compound 1336] | 59 | 103 |  |  | 
2 | COc1ccc(S(=O)(=O)N2CCN(c3cccc(Nc4ccc(C)cc4)n3)CC2)cc1 [Compound 1158] |  |  | 51 | 92 | 
3 | O=S(=O)(c1ccc(OC(F)(F)F)cc1)N1CCCN(c2nc(Nc3ccc(F)cc3)cc(C(F)(F)F)n2)CC1 [Compound 1419] | 11 | 93 |  |  | 
4 | COc1ccc(S(=O)(=O)N2CCN(c3nc(C)cc(Nc4ccncc4)n3)CC2)cc1 [Compound 1240] |  |  | 46 | 102 | 
5 | O=S(=O)(c1ccc(C(F)(F)F)cc1)N1CCN(c2nc(Oc3ccc(F)cc3)cc(-n3cnnc3)n2)CC1 [Compound 1308] |  |  | 63 | 88 | 
6 | COc1ccc(S(=O)(=O)N2CCN(c3nc(NCCO)cc(Nc4ccc(C)cc4)n3)CC2)cc1 [Compound 1232] |  |  | 83 | 96 | 
7 | Cc1ccc(Nc2cc(C)nc(N3CCN(S(=O)(=O)c4cn[nH]c4)CC3)n2)cc1 [Compound 1238] |  |  | 26 | 102 | 
8 | COC(=O)c1ccc(S(=O)(=O)N2CCN(c3nc(C)cc(Nc4ccc(F)cc4)n3)CC2)cc1 [Compound 1382, methyl 4-((4-(4-((4-fluorophenyl)amino)-6-methylpyrimidin-2-yl)piperazin-1-yl)sulfonyl) benzoate] | 34 | 107 |  |  | 
9 | O=S(=O)(c1ccc(OC(F)(F)F)cc1)N1CCN(c2nc(Nc3ccccn3)cc(C(F)(F)F)n2)CC1 [Compound 1415] | 120 | 101 |  |  | 
10 | COc1ccc(S(=O)(=O)N2CCN(c3nc(Nc4ccc(C)cc4)cc(N4CCCCC4)n3)CC2)cc1 [Compound 1190] |  |  | 72 | 83 | 
11 | Cc1cc(Nc2ccc(F)cc2)nc(N2CCN(S(=O)(=O)c3ccc(OCCN(C)C)cc3)CC2)n1 [Compound 1378, 2-(4-((4-(2-(dimethylamino)ethoxy)phenyl)sulfonyl)piperazin-1-yl)-N-(4-fluorophenyl)-6-methylpyrimidin-4-amine] | 13 | 1 |  |  | 
12 | Cc1ccc(S(=O)(=O)N2CCN(c3nc(Nc4ccc(F)cc4)cc(-c4nccs4)n3)CC2)cc1 [Compound 1361] | 25 | 95 |  |  | 
13 | C[C@H](Oc1ccc(S(=O)(=O)N2CCN(c3nc(Nc4ccc(F)cc4)cc(C(F)(F)F)n3)CC2)cc1)C(=O)O [Compound 1410, (S)-2-(4-((4-(4-((4-fluorophenyl)amino)-6-(trifluoromethyl)pyrimidin-2-yl)piperazin-1-yl)sulfonyl)phenoxy) propanoic acid] | 14 | 58 |  |  | 
14 | Cc1ccc(Nc2cc(C)nc(N3CCN(S(=O)(=O)c4cc(C(=O)Nc5cc(F)c(F)c(F)c5)ccc4F)CC3)n2)cc1 [Compound 1286, 4-fluoro-3-((4-(4-methyl-6-(p-tolylamino)pyrimidin-2-yl)piperazin-1-yl)sulfonyl)-N-(3,4,5-trifluorophenyl) benzamide] |  |  | 2 | 86 | 
15 | COc1ccc(S(=O)(=O)N2CCN(c3nc(Nc4ccc(C)cc4)cc(N4CCN(C)CC4)n3)CC2)cc1 [Compound 1207] |  |  | 83 | 0 | 
16 | COc1ccc(S(=O)(=O)N2CCN(c3nc(NCCN(C)C)cc(Nc4ccc(C)cc4)n3)CC2)cc1 [Compound 1251] |  |  | 60 | 56 | 
17 | N#Cc1ccc(Nc2cc(-c3nccs3)nc(N3CCN(S(=O)(=O)c4ccc(OC(F)(F)F)cc4)CC3)n2)cc1 [Compound 1364] | 62 | 100 |  |  | 
18 | COc1ccc(S(=O)(=O)N2CCN(c3nc(Nc4ccc(C)cc4)cc(-c4ncc[nH]4)n3)CC2)cc1 [Compound 1274, 6-(1H-imidazol-2-yl)-2-(4-((4-methoxyphenyl)sulfonyl)piperazin-1-yl)-N-(p-tolyl) pyrimidin-4-amine] |  |  | 19 | 92 | 

Row | SMILES | activity at 10 µM ([1]; Table 9) [%] | AD38 Viability Normalized Result (CPAM/DMSO %) at 10 μM ([2]; Table 9) [%] | activity at 10 µM ([1]; Table 6) [%] | AD38 Viability Normalized Result (CPAM/DMSO %) at 10 μM ([2]; Table 6) [%] | AD38 Viral Load (CpAM/DMSO %) at 10 μM ([1]; Table 9) [%]
19 | Cc1ccc(Nc2cc(C)nc(N3CCN(S(=O)(=O)c4cccnc4)CC3)n2)cc1 [Compound 1133] |  |  | 35 | 108 | 
20 | COc1ccc(S(=O)(=O)N2CCN(c3nc(C)cc(Nc4ccc(C#N)cc4)n3)CC2=O)cc1 [Compound 1366, 4-((2-(4-((4-methoxyphenyl)sulfonyl)-3-oxopiperazin-1-yl)-6-methylpyrimidin-4-yl)amino) benzonitrile] | 41 | 108 |  |  | 
21 | Cc1cc(Nc2ccc(F)cc2)nc(N2CCN(S(=O)(=O)c3ccc(CC(=O)O)cc3)CC2)n1 [Compound 1392, 2-(4-((4-(4-((4-fluorophenyl)amino)-6-methylpyrimidin-2-yl)piperazin-1-yl)sulfonyl)phenyl) acetic acid] | 69 | 99 |  |  | 
22 | O=S(=O)(c1ccc(F)cc1)N1CCN(c2nc(Nc3ccc(F)cc3)cc(-c3nccs3)n2)CC1 [Compound 1375] |  | 104 |  |  | 43
23 | CCCOc1ccc(S(=O)(=O)N2CCN(c3nc(Nc4ccc(F)cc4)cc(C(F)(F)F)n3)CC2)cc1 [Compound 1400] | 73 | 93 |  |  | 
24 | COc1ccc(S(=O)(=O)N2CCN(c3nc(C)cc(Nc4ccc(C#N)cc4)n3)CC2(C)C)cc1 [Compound 1376] | 20 | 121 |  |  | 
25 | COc1ccc(S(=O)(=O)N2CCN(c3nc(Nc4ccc(C)cc4)cc(N4CCOCC4)n3)CC2)cc1 [Compound 1179] |  |  | 45 | 103 | 
26 | COc1cccc(S(=O)(=O)N2CCN(c3cccc(Nc4ccc(C)cc4)n3)CC2)c1 [Compound 1168] |  |  | 51 | 100 | 
27 | CCOc1ccc(S(=O)(=O)N2CCN(c3nc(Nc4ccc(F)cc4)cc(-c4nccs4)n3)CC2)cc1 [Compound 1358] | 77 | 99 |  |  | 
28 | Cc1cc(Nc2ccc(F)cc2)nc(N2CCN(S(=O)(=O)c3ccc(OC(C)(C)C(=O)O)cc3)CC2)n1 [Compound 1403, 2-(4-((4-(4-((4-fluorophenyl)amino)-6-methylpyrimidin-2-yl)piperazin-1-yl)sulfonyl)phenoxy)-2-methylpropanoic acid] | 83 | 100 |  |  | 
29 | CN(C)CCOc1ccc(S(=O)(=O)N2CCN(c3nc(Nc4ccc(F)cc4)cc(C(F)(F)F)n3)CC2)cc1 [Compound 1389, 2-(4-((4-(2-(dimethylamino)ethoxy)phenyl)sulfonyl)piperazin-1-yl)-N-(4-fluorophenyl)-6-(trifluoromethyl) pyrimidin-4-amine] | 2 | 0 |  |  | 
30 | Cc1cc(Nc2ccc(F)cc2)nc(N2CCN(S(=O)(=O)c3cccc(CC(=O)O)c3)CC2)n1 [Compound 1411, 2-(3-((4-(4-((4-fluorophenyl)amino)-6-methylpyrimidin-2-yl)piperazin-1-yl)sulfonyl)phenyl) acetic acid] | 117 | 102 |  |  | 
31 | COc1ccc(S(=O)(=O)N2CCN(c3nc(Nc4ccc(C)cc4)cc(N4CCCC4)n3)CC2)cc1 [Compound 1144] |  |  | 12 | 100 | 
32 | N#Cc1ccc(Nc2cc(-c3cncs3)nc(N3CCN(S(=O)(=O)c4ccc(OC(F)(F)F)cc4)CC3)n2)cc1 [Compound 1372] | 21 | 109 |  |  | 
33 | Cc1ccc(Nc2cc(C)nc(N3CCN(S(=O)(=O)c4ccccc4C)CC3)n2)cc1 [Compound 1153] |  |  | 21 | 109 | 
34 | CCOc1ccc(S(=O)(=O)N2CCN(c3nc(Nc4ccc(C#N)cc4)cc(C(F)(F)F)n3)CC2)cc1 [Compound 1333] | 2 | 85 |  |  | 
35 | CN(C)c1cc(Nc2ccc(F)cc2)nc(N2CCN(S(=O)(=O)c3ccccc3)CC2)n1 [Compound 1304] |  |  | 48 | 113 | 
36 | CC(C)c1cc(Oc2ccc(F)cc2)nc(N2CCN(S(=O)(=O)c3cccc(C(F)(F)F)c3)CC2)n1 [Compound 1287] |  |  | 77 | 98 | 
